# Tests used:
# [1] = test system: Ubi-SR39h post-mitotic neurons differentiated from ReNcells; format: cell-based, human
# Description: Figure 4 EC50 and kinetics of GCV-induced cell death in proliferating and post-mitotic ReNcells. SR39h was expressed in ReNcells (immortalized neural precursor cells that can be differentiated to post-mitotic neurons) under the control of the two different promoters: Ki67 or ubiquitin. Wild type ReNcells were used as control. […] (B–D) Kinetics of cell death of SR39-expressing ReNcells cells either under the control of cycle promoter Ki67 or ubiquitin promoter with increasing GCV concentrations of 1, 10, and 100 µM. Cell viability was measured every 24 h using a bioluminescent ATP-based assay (n = 3). (E) ReNcells were differentiated toward post-mitotic neurons for 21 days then treated with GCV for 10 days. Cell viability was measured using an ATP-based assay. Results are mean + SD of three independent experiments performed in triplicates. […]
# Cell culture plate (96 wells plate Corning #3907, Corning, Lonay, Switzerland) were pre-coated with 60 μL per well of Poly-L-ornithine solution (Sigma, Merk, Eysins, Switzerland) at 37 °C for 30 min. […] For EC50 assays, the medium was changed daily for 4 days, then cell viability was assessed using an ATP-based assay. EC50 values for each construct were calculated using a four parameters equation (GraphPad, Prism8, San Diego, CA, USA). […] Luminescence was measured using Spectra L384/L96 (0.2 sec exposure, Molecular devices, Biberach an der Riß, Germany). […]
# [2] = format: in vivo, NOD/SCID mice; details: 40 mg/kg/day i.p.; weighed daily during treatment
# Description: Given the encouraging in vitro results, we next investigated whether this newly developed safety switch system (SR39h and different nucleoside analogs) could prevent tumor formation in vivo. For this purpose, 20,000 undifferentiated Ki67-SR39h-expressing hESC were transplanted into the striatum of NOD/SCID mice. […] A group of control mice received only a NaCl solution. […] Human cytoplasmic marker (HCM) staining confirmed the human (i.e., hESC-derived) origin of these tumors. Tumors cells were predominantly Ki67 positive with a rosette organization as frequently found in tumors of the central nervous system.
# Supplementary Figure S3: Mice weight
# Mice were weighed daily during guanosine analogs treatment to identify differences in weight gain/loss between treated groups. No differences were observed between treatment groups.
# Supplementary Figure S4: in vivo validation of suicide gene. Coronal section of NOD/SCID mice 47 days after injection of hESC expressing the SR39h thymidine kinase variant. Mice were treated for 2x5 days with the respective nucleoside analogs (see Methods). Upper lane: ACV; middle lane: PCV; lower lane: GCV. Sections were colored with cresyl violet and dark purple staining reflects a high density of nuclei. Scale bar 1000 µm. […]
compound,measurement,setting,value
"Nc1nc(O)c2ncn(COC(CO)CO)c2n1 [GCV, ganciclovir]",Cell death in post-mitotic neurons (in words),[1],killed
same,GCV concentration from which cell death induction was detected,"[1]; human, 10 days",≥ 10 µM
same,Differences in weight among groups,[2],no significant differences in weight
